This note sets out measurements from patent US20190192697A1, “CHEMICAL PROBES OF LYSYL OXIDASK-LIKE 2 AND USES THEREOF” (PHARMAKEA, INC., priority 2016, published 2019).

Structures are written as SMILES. Structures can show the parent of a compound that is named as a salt.

One data set addresses T1, LOXL2 (Homo sapiens, UniProt Q9Y4K0).
T1 sequence (Q9Y4K0 26-774): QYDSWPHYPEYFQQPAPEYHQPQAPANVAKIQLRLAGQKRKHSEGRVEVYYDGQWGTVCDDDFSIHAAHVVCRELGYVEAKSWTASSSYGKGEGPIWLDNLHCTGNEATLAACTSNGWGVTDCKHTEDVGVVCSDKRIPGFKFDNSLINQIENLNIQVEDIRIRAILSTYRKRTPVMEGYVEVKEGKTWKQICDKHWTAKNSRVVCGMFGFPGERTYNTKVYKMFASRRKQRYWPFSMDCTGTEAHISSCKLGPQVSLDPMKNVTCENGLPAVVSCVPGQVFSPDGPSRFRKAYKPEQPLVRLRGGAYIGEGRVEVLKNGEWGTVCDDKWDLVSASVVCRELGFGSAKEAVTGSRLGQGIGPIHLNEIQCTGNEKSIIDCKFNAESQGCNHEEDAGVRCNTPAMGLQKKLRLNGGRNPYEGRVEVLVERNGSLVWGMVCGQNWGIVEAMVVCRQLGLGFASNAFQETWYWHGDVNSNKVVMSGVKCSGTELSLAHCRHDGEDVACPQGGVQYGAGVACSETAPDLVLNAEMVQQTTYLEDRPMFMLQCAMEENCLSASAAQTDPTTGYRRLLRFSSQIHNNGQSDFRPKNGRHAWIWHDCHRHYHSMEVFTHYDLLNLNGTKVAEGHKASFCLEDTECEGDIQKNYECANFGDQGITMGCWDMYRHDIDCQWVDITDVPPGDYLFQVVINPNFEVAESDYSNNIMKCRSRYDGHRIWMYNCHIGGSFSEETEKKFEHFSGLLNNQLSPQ
The experiment in a line: Erenna-based fluorescence magnetic bead assay for free/unbound LOXL2. It counts as binding. The settings on record: 34 nM Compound 1-2, 15 hours at room temperature.
Experimental: Following the incubation, 10 μg of streptavidin-coated magnetic microparticles (MPs) are added to each well and incubated for 30 min-2 hours at room temperature with shaking. The MPs are washed once using magnetic separation and 20 μL of a fluorescently conjugated anti-LOXL2 antibody is added to each well (for example, R&D Systems anti-LOXL2 Goat IgG polyclonal antibody conjugated to AlexaFluor 647) and incubated for 30 min-2 hours at room temperature with shaking. The MPs are washed four times with magnetic separation and transferred to a new plate. All liquid is aspirated from the plate and elution buffer added and incubated for 10 minutes at room temperature with shaking. The eluate is transferred to a 384 well assay plate containing neutralization buffer, sealed and read on Erenna®.
`Cl.NCc1cc(Oc2cccc(C(=O)NCCOCCOCCOCCOCCOCCOCCOCCOCCOCCOCCOCCNC(=O)CCCC[C@@H]3SC[C@@H]4NC(=O)N[C@@H]43)c2)nc(C(F)(F)F)c1` [Compound 1-2, 3-((4-(Aminomethyl)-6-(trifluoromethyl)pyridin-2-yl)oxy)-N-(37-oxo-41-((3aS,4S,6aR)-2-oxohexahydro-1H-thieno[3,4-d]imidazol-4-yl)-3,6,9,12,15,18,21,24,27,30,33-undecaoxa-36-azahentetracontyl)benzamide hydrochloride]: the “signal of free/unbound LOXL2 versus LOXL2 concentration” value was “linear increase in signal of free/unbound LOXL2 up to 500 pg/mL”.

The next data set addresses T1, LOXL2. In words: Human LOXL2 amine oxidase activity assay (Amplex Red). Also noted: expressed in transfected cells; host or cells: CHO cells stably expressing human LOXL2; 10-20x concentrated conditioned media. Particulars: concentrated conditioned media from CHO cells expressing human LOXL2; 2 h at 37° C. pre-incubation. The data set is classed as biochemical. As for the experimental part: LOXL2 amine oxidase activity is evaluated by measuring Amplex Red fluorescence using 10-20× concentrated conditioned media from CHO cells stably expressing human LOXL2. To assay for amine oxidase activity, 10 μL of the concentrated conditioned media is incubated with 2 μL of test compound in DMSO and 73 μL Assay Buffer (50 mM Borate Buffer, pH8) for 2 h at 37° C. After the 2 h incubation, 5 μL of 10 mM 1,5-diaminopentane (DAP) diluted in Assay Buffer and 10 μL of Amplex Red Mix (8.5 μL Assay Buffer+0.5 μL of 10 mM Amplex Red+1 μL of 500 U/mL Horseradish Peroxidase) are added and the plate mixed and immediately placed on the FlexStaion for fluorescence measurements. Fluorescence is read in kinetic mode every 2 min for 1 hour at excitation=544 nm and emission=590 nm. The amine oxidase activity is calculated from the slope of the linear portion of the curve.
Usually IC50 stands for the concentration at which inhibition is half-maximal. A higher IC50 goes with weaker potency. Take `NCc1cc(Oc2cccc(C(=O)NCCCCCNC(=O)CCCC[C@@H]3SC[C@@H]4NC(=O)N[C@@H]43)c2)nc(C(F)(F)F)c1` [Compound 1-1, 3-((4-(Aminomethyl)-6-(trifluoromethyl)pyridin-2-yl)oxy)-N-(5-(5-((3aS,4S,6aR)-2-oxohexahydro-1H-thieno[3,4-d]imidazol-4-yl)pentanamido)pentyl)benzamide hydrochloride]: the IC50 is less than 300 nM.
Still for that read-out and setting: to `NCc1cc(Oc2cccc(C(=O)NCCOCCOCCOCCNC(=O)CCCC[C@@H]3SC[C@@H]4NC(=O)N[C@@H]43)c2)nc(C(F)(F)F)c1` [Compound 1-19, 3-((4-(Aminomethyl)-6-(trifluoromethyl)pyridin-2-yl)oxy)-N-(13-oxo-17-((3aS,4S,6aR)-2-oxohexahydro-1H-thieno[3,4-d]imidazol-4-yl)-3,6,9-trioxa-12-azaheptadecyl)benzamide hydrochloride] belongs less than 300 nM.
As to `CN1/C(=C/C=C/C=C/C2=[N+](CCCCCC(=O)NCCCn3cc(CCCCNC(=O)c4cccc(Oc5cc(CN)cc(C(F)(F)F)n5)c4)nn3)c3ccccc3C2(C)C)C(C)(C)c2ccccc21` [Compound 1-4, 1-(6-((3-(4-(4-(3-((4-(Aminomethyl)-6-(trifluoromethyl)pyridin-2-yl)oxy)benzamido)butyl)-1H-1,2,3-triazol-1-yl)propyl)amino)-6-oxohexyl)-3,3-dimethyl-2-((1E,3E,5E)-5-(1,3,3-trimethylindolin-2-ylidene)penta-1,3-dien-1-yl)-3H-indol-1-ium chloride hydrochloride], the IC50 was less than 300 nM.
In the case of `NCc1cc(Oc2cccc(C(=O)NCCNC(=O)CCCCCNC(=O)CCCCCNC(=O)CCCC[C@@H]3SC[C@@H]4NC(=O)N[C@@H]43)c2)nc(C(F)(F)F)c1` [Compound 1-20, 3-((4-(Aminomethyl)-6-(trifluoromethyl)pyridin-2-yl)oxy)-N-(2-(6-(6-(5-((3aS,4S,6aR)-2-oxohexahydro-1H-thieno[3,4-d]imidazol-4-yl)pentanamido)hexanamido)hexanamido)ethyl)benzamide hydrochloride], the IC50 is less than 300 nM.
Still for that read-out and setting: next, `Cc1cc(=O)oc2cc(NC(=O)c3cccc(Oc4cc(CN)cc(C(F)(F)F)n4)c3)ccc12` [Compound 1-5, 3-((4-(Aminomethyl)-6-(trifluoromethyl)pyridin-2-yl)oxy)-N-(4-methyl-2-oxo-2H-chromen-7-yl)benzamide hydrochloride]: less than 300 nM.
Turning to `CC1(C)C(/C=C/C(=C/C=C2\N(CCCS(=O)(=O)O)c3ccc4c(S(=O)(=O)O)cc(S(=O)(=O)O)cc4c3C2(C)C)c2cccc(CCCCC(=O)NCCCCCCNC(=O)c3cccc(Oc4cc(CN)cc(C(F)(F)F)n4)c3)c2)=[N+](CCCS(=O)(=O)O)c2ccc3c(S(=O)(=O)O)cc(S(=O)(=O)O)cc3c21` [Compound 1-22, 3-(2-((1E,3Z,5Z)-3-(3-(5-((6-(3-((4-(Aminomethyl)-6-(trifluoromethyl)pyridin-2-yl)oxy)benzamido)hexyl)amino)-5-oxopentyl)phenyl)-5-(1,1-dimethyl-6,8-disulfo-3-(3-sulfopropyl)-1H-benzo[e]indol-2(3H)-ylidene)penta-1,3-dien-1-yl)-1,1-dimethyl-6,8-disulfo-1H-benzo[e]indol-3-ium-3-yl)propane-1-sulfonate trifluoroacetate], the IC50 was greater than 1000 nM.
In turn, `Cl.NCc1cc(Oc2cccc(C(=O)NCCOCCOCCOCCOCCOCCOCCOCCOCCOCCOCCOCCNC(=O)CCCC[C@@H]3SC[C@@H]4NC(=O)N[C@@H]43)c2)nc(C(F)(F)F)c1` [Compound 1-2, 3-((4-(Aminomethyl)-6-(trifluoromethyl)pyridin-2-yl)oxy)-N-(37-oxo-41-((3aS,4S,6aR)-2-oxohexahydro-1H-thieno[3,4-d]imidazol-4-yl)-3,6,9,12,15,18,21,24,27,30,33-undecaoxa-36-azahentetracontyl)benzamide hydrochloride] gave an IC50 of less than 300 nM.
In turn, `CN1/C(=C/C=C/C2=[N+](CCCCCC(=O)NCCCn3cc(CCCCNC(=O)c4cccc(Oc5cc(CN)cc(C(F)(F)F)n5)c4)nn3)c3ccccc3C2(C)C)C(C)(C)c2ccccc21` [Compound 1-3, 1-(6-((3-(4-(4-(3-((4-(Aminomethyl)-6-(trifluoromethyl)pyridin-2-yl)oxy)benzamido)butyl)-1H-1,2,3-triazol-1-yl)propyl)amino)-6-oxohexyl)-3,3-dimethyl-2-((1E,3E)-3-(1,3,3-trimethylindolin-2-ylidene)prop-1-en-1-yl)-3H-indol-1-ium chloride hydrochloride] came in with an IC50 of less than 300 nM.
`CN(C)c1cccc2c(S(=O)(=O)Nc3cccc(Oc4cc(CN)cc(C(F)(F)F)n4)c3)cccc12` [Compound 1-6, N-(3-((4-(Aminomethyl)-6-(trifluoromethyl)pyridin-2-yl)oxy)phenyl)-5-(dimethylamino)naphthalene-1-sulfonamide hydrochloride] returned an IC50 of 300 to 1000 nM.

Tested on in another data set: not listed separately
The experiment in a line: Compound tissue distribution studies with 18F-PET imaging. The data set is classed as in vivo. The settings on record: 30-50 μCi intravenously, PET imaged 90-120 minutes, naïve or bleomycin-instilled mice. As for the experimental part:
In these studies, naïve or bleomycin-instilled mice were injected with 30-50 μCi of Compound 1-13 (^18F-labeled) intravenously and were PET imaged for 90-120 minutes following injection of the radiolabel. These animals were then sacrificed at 2.5 hours post-administration of the ^18F-labeled Compound 1-13 and tissues and blood were analyzed by scintillation counting to determine concentration of radioactivity remaining.
To determine specific binding, a subset of mice were administered a blocking dose of Compound 1-13a or vehicle (delivered at 60 mg/kg PO) at a suitable time point prior to the PET-ligand injection, such as 2.5-4 h prior.
With `NCc1cc(Oc2cccc(C(=O)N3C[C@@H](O)[C@H]([18F])C3)c2)nc(C(F)(F)F)c1` [Compound 1-13, (3-((4-(Aminomethyl)-6-(trifluoromethyl)pyridin-2-yl)oxy)phenyl)((3R,4R)-3-^18fluoro-4-hydroxypyrrolidin-1-yl)methanone hydrochloride], the “tissue distribution of the 18F-labeled ligand” value is “Highest initial concentrations of ligand were observed in liver, kidney and lung”.
